These results are taken from patent publication US10568854B2, “Compositions and methods for treating kabuki syndrome and related disorders” (THE JOHNS HOPKINS UNIVERSITY, priority 2014, dated 2020).

“Also recorded” adds a separate entry of the source.

The subject of experiment [1] is H3K4 trimethylation activity in Kmt2d^+/βGeo and Kmt2d^+/+ MEFs. Description: H3K4me3 indicator in murine embryonic fibroblasts (MEFs). The experiment is classed as cell-based, mouse. An excerpt: An H3K4 trimethylation reporter was also created. This reporter is based on the H3 tail on one end and the TBP associated factor III (TAFIII) homeodomain on the other end; the TAFIII homeodomain only identifies and binds to trimethylated K4 on H3. When the H3K4 site gets trimethylated, the TAFIII homeodomain can bind to the modified H3 tail and bring the two parts of the separated GFP in close proximity. The activity of the epigenetic modification system can be quantified through fluorescence.
Epigenetic reporter alleles: Epigenetic reporter alleles were synthesized (OriGene, Rockville, Md.) using published sequences for component elements (Baird et al. (1999) Proc. Nail. Acad. Sci. 96:11241-6; Souslova et al. (2007) BMC Biotechnol. 7:37). Single nucleotide mutations were created using the QuickChange Lightening kit (Agilent Technologies Inc, Santa Clara, Calif.). For H4ac indicator, K5R, K8R, K12R, K16R and K20R (MUT indicator) were introduced. For H3K4me3 indicator, K4Q and D890A/W891A and M882A (three separate constructs) were introduced. For transient transfections, mouse embryonic fibroblasts (see below) were transfected with Fugene HD (Promega, Madison, Wis.), 48 hours prior to FACS. […] For drug stimulation, drug was added to the media 24 hours prior to FACS. For stable transfections in T293 (American Type Culture Collection) cells, 10 μg/ml of Blastocidin (Life Technologies, Carlsbad, Calif.) was added to the media for several weeks. For stable transfection in MEFs, the reporter was transferred to a ViraPower Lentiviral Expression System (Life Technologies, Carlsbad, Calif.). After selection with Blastocidin, the drug of interest was added 24 hours prior to FACS. SAHA, AR-42 and MS275 were purchased from Selleck (Selleck Chemicals, Houston, Tex.). […] FACS data were analyzed using FlowJo (Tree Star Inc, Ashland, Oreg.). A plasmid expressing HDAC3 was acquired from Addgene (Cambridge, Mass., plasmid 13819) and transfected into a stable cell line carrying the H4 acetyl reporter allele.

For experiment [2], the system named is H3K4 trimethylation and histone acetylation. Particulars: cited from earlier work.
The subject of experiment [3] is genome-wide H3K4me3 in spleen cells. Description: ChIP-seq of H3K4me3 in spleen cells. In kind it is in vivo, mouse. Particulars: 10 mg/kg/day, Kmt2d^+/βGeo mice. As to the method: ChIP-seq: Spleens were dissected from eight mice, four from each kmt2d genotype (+/βGeo or +/+) where half of each genotype was treated with AR-42 and half with vehicle only. Spleens were minced and passed through a […] cell strainer to obtain single cell suspensions. 10 million cells were used for each ChIP-seq experiment following the native chromatin immunoprecipitation protocol, as previously described (Gilfillan et al. (2012) BMC Genomics 13:645), using a ChIP-grade antibody against H3K4me3 (9727, Cell Signaling Technology, Beverly, Mass.).
ChIP-seq data analysis: Sequencing was performed using a MiSeq system (Illumina, San Diego, Calif.). 4.8-9.6 million paired-end 26 by reads were obtained per sample (Table 2; nReads=number of reads, alignRate=fraction aligned to genome; FRIP=fraction of reads in peaks). Reads were aligned to the m. musculus genome, version mm10, using Bowtie 2 (Langmead and Salzberg (2012) Nat. Methods. 9: 357-9). Each sample was examined with regard to alignment rate as well as FRIP (fraction of reads in peaks), a measure of the ChIP efficiency (Table 2). […] For analysis, reads were merged into one meta-sample and peak calling was performed using MACS version 1.4.2 (Zhang et al. (2008) Genome Biol. 9: R137). […] This created a peak by sample matrix of read counts. […] Fold change and overall abundance was calculated as per edgeR. […]

`CC(C)[C@H](C(=O)Nc1ccc(C(=O)NO)cc1)c1ccccc1` [AR-42, (S)—N-hydroxy-4-(3-methyl-2-phenylbutanamido)benzamide]: in experiment [1] (Kmt2d^+/βGeo MEFs), the “dose at which Kmt2d^+/βGeo MEFs achieve untreated wild-type levels of H3K4me3 indicator activity” value is 5 µM. The H3K4 trimethylation activity result in experiment [1] (Kmt2d^+/βGeo cells treated with HDAC inhibitor) is “enhanced”. In experiment [1] (both genotypes (Kmt2d^+/βGeo, Kmt2d^+/+)), the “H3K4me3 indicator activity in MEFs” value is “dose-dependent response”. For the same compound, in experiment [2] (AR-42 versus MS275, Huang et al. (2011)), the “relative effect on H3K4me3” value is “strongest effect on H3K4me3”. For the same compound, the “effect on H3K4 trimethylation and histone acetylation” value in experiment [2] (Huang et al. (2011)) was “increase H3K4 trimethylation and histone acetylation”. Moreover, in experiment [3], the “genome-wide H3K4me3 (ChIP-seq)” value is listed as “genome-wide increase in H3K4me3; also recorded: improved”.
